Results taken from paper PMC4866733 (PLoS Genetics, 2016).

Legend:
GacSH1 = target: T1, GacSH1 (Pseudomonas aeruginosa, UniProt G3XD98); conditions: 0.1 mM ATP, 5 mM MgCl2, 50 mM KCl, 50 mM Tris-HCl pH 7.6, 1 mM DTT, room temperature, 20 min; GacSD1 present; labelled compound
T1 construct: gene gacS

LadSH1D1 = target: T2, LadSH1D1 (Pseudomonas aeruginosa, UniProt Q9HX42); conditions: 0.1 mM ATP, 5 mM MgCl2, 50 mM KCl, 50 mM Tris-HCl pH 7.6, 1 mM DTT, room temperature, 20 min; labelled compound; phosphoryl transfer to H428
T2 construct: gene ladS
T2 sequence (Q9HX42 entry or part of it): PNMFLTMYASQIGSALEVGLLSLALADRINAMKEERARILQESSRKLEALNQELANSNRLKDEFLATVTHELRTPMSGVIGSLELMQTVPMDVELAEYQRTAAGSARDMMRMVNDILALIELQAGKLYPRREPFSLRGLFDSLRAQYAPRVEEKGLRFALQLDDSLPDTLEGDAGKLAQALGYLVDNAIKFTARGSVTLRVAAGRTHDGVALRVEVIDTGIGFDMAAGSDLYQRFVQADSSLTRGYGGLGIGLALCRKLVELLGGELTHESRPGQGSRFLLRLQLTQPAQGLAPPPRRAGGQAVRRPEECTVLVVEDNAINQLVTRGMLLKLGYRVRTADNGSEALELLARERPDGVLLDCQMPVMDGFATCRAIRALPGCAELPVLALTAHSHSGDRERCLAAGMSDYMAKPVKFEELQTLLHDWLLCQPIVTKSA

T1 sequence (G3XD98 entry or part of it): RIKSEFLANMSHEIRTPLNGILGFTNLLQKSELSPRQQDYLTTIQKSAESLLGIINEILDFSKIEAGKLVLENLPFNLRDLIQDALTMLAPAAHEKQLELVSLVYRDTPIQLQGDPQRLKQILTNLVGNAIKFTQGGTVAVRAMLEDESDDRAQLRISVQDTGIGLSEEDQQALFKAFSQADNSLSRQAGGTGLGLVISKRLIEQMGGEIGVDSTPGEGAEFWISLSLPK

Compound: Nc1ncnc2c1ncn2[C@@H]1O[C@H](COP(=O)(O)OP(=O)(O)OP(=O)(O)O)[C@@H](O)[C@H]1O [[γ-^32P]ATP]
- autophosphorylation and phosphotransfer to GacSD1, SDS-PAGE and autoradiography (GacSH1): between the H1 domain of GacS and the D1 domain of GacS
- autophosphorylation, SDS-PAGE and autoradiography (LadSH1D1): LadSH1D1 and LadSH1D1D→A proteins were found in an autophosphorylated form
